The values below are quoted from earlier work in patent US20050273047A1, “System and method for transdermal delivery of an anticoagulant” (priority 2004, published 2005).

Structures are written as SMILES.

The data set has as its target Factor Xa (Homo sapiens, UniProt P00742). The following applies: as compared to the corresponding methyl ester; cited from earlier work.

Chain of Factor Xa (P00742 235-488 limits assumed): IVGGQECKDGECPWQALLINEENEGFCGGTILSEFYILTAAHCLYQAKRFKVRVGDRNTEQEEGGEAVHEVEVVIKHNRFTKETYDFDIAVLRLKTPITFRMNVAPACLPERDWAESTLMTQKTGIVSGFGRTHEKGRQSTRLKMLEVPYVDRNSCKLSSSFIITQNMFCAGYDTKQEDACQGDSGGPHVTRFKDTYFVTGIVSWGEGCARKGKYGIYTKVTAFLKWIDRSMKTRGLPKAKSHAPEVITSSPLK
Chain of Factor Xa (P00742 41-179 partner limits assumed): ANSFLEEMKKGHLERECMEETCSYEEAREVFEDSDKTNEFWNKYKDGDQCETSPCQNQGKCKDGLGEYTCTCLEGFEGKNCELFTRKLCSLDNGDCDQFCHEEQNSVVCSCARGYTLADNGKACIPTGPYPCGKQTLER

On to `CC(=N)N1CC[C@H](Oc2ccc([C@H](Cc3ccc4ccc(C(=N)N)cc4c3)C(=O)O)cc2)C1` [compound shown in FIG. 7], for which the “enhancement of Factor Xa selectivity by the carboxylic acid” value was “about 100 fold”.
